{"source": "patent US12421212B2", "about": "“Substituted benzenecarboxamides as IL-17A modulators” (DiCE Alpha, Inc., priority 2019, dated 2025)", "data": [{"molecular_target": "T1, IL-17A/A (Homo sapiens, UniProt Q16552)", "T1 construct": "purchased Genscript Z03228", "T1 sequence (Q16552 24-155)": "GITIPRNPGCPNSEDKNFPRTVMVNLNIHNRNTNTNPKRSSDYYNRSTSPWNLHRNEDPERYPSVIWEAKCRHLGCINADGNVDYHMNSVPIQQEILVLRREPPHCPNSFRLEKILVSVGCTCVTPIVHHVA", "test": "IL-17A/A HEK-Blue Cell Assay", "format": "cell-based", "details": "HEK-Blue IL-17A reporter cell line, SEAP readout at A630, 20 hours incubation with IL-17A/A; top concentration 10 uM, 1 uM or 0.3 uM", "values": [{"smiles": "CCC(=O)N[C@@H](C(=O)N1CCN(C(C)(C)O)CC1)[C@@H](C)c1ccc(NC(=O)[C@@H](NC(=O)c2ccnn2CC)[C@H]2CC[C@H](C)CC2)c(F)c1", "note": "[Compound 424]", "IL-17A/A inhibition (pIC50)": "B (8>B≥7 as B)"}, {"smiles": "CCC(=O)N[C@@H](C(=O)N1C[C@H](C)N(C(C)C)[C@@H](C)C1)[C@@H](C)c1ccc(NC(=O)[C@@H](NC(=O)c2nonc2CC)[C@H]2CC[C@H](C)CC2)c(F)c1", "note": "[Compound 449]", "IL-17A/A inhibition (pIC50)": "A (compounds having a pIC50 of greater than or equal 8 as A)"}, {"smiles": "CCC(=O)N[C@H](Cc1ccc(NC(=O)[C@@H](NC(=O)c2nonc2CC)[C@H]2CC[C@H](C)CC2)c(F)c1)C(=O)N1CCN(C)[C@@H](C)C1", "note": "[Compound 462]", "IL-17A/A inhibition (pIC50)": "A (compounds having a pIC50 of greater than or equal 8 as A)"}, {"smiles": "CCC(=O)N[C@@H](C(=O)N1CCN(CC)C(C)(C)C1)[C@@H](C)c1ccc(NC(=O)[C@@H](NC(=O)c2nonc2CC)[C@H]2CC[C@H](C)CC2)c(F)c1", "note": "[Compound 466]", "IL-17A/A inhibition (pIC50)": "A (compounds having a pIC50 of greater than or equal 8 as A)"}]}, {"molecular_target": "T1, IL-17A/A", "test": "IL-17A/A HEK-Blue Cell Assay", "format": "cell-based", "details": "HEK-Blue IL-17A reporter cell line, SEAP readout at A630, 20 hours incubation with IL-17A/A; top concentration 10 uM, 1 uM or 0.3 uM; read-out: IL-17A/A inhibition (pIC50) (converted)", "units": {"IC50": "nM"}, "values": [{"smiles": "CCC(=O)N[C@@H](C(=O)N1C[C@@H](C)N[C@@H](C)C1)[C@@H](C)c1ccc(NC(=O)[C@@H](NC(=O)c2ccnn2CC)[C@H]2CC[C@H](C)CC2)c(F)c1", "note": "[Compound 425]", "IC50": "10 to 100"}, {"smiles": "CCC(=O)N[C@@H](C(=O)N1CCN(CC)[C@H](C)C1)[C@@H](C)c1ccc(NC(=O)[C@@H](NC(=O)c2ccnn2CC)[C@H]2CC[C@H](C)CC2)c(F)c1", "note": "[Compound 426]", "IC50": "< 10"}, {"smiles": "CCC(=O)N[C@@H](C(=O)N1CCN(CC)[C@@H](C)C1)[C@@H](C)c1ccc(NC(=O)[C@@H](NC(=O)c2ccnn2CC)[C@H]2CC[C@H](C)CC2)c(F)c1", "note": "[Compound 427]", "IC50": "< 10"}, {"smiles": "CCn1nccc1C(=O)N[C@H](C(=O)Nc1ccc([C@H](C)[C@@H](NC(=O)c2cnns2)C(=O)N2CCN(CCO)CC2)cc1F)[C@H]1CC[C@H](C)CC1", "note": "[Compound 428]", "IC50": "10 to 100"}, {"smiles": "CCC(=O)N[C@@H](C(=O)N1CCN(C)C[C@@H]1C)[C@@H](C)c1ccc(NC(=O)[C@@H](NC(=O)c2ccnn2CC)[C@H]2CC[C@H](C)CC2)c(F)c1", "note": "[Compound 429]", "IC50": "< 10"}, {"smiles": "CCC(=O)N[C@@H](C(=O)N1CCN(C)C[C@H]1C)[C@@H](C)c1ccc(NC(=O)[C@@H](NC(=O)c2ccnn2CC)[C@H]2CC[C@H](C)CC2)c(F)c1", "note": "[Compound 430]", "IC50": "< 10"}, {"smiles": "CCC(=O)N[C@@H](C(=O)N1CCN(C)CC1(C)C)[C@@H](C)c1ccc(NC(=O)[C@@H](NC(=O)c2ccnn2CC)[C@H]2CC[C@H](C)CC2)c(F)c1", "note": "[Compound 431]", "IC50": "< 10"}, {"smiles": "CCn1nccc1C(=O)N[C@H](C(=O)Nc1ccc([C@H](C)[C@@H](NC(=O)C(C)C2CC2)C(=O)N2CCN(C)C(C)(C)C2)cc1F)[C@H]1CC[C@H](C)CC1", "note": "(stereo partly drawn) [Compound 432]", "IC50": "< 10"}, {"smiles": "CCn1nccc1C(=O)N[C@H](C(=O)Nc1ccc([C@H](C)[C@@H](NC(=O)C(C)C2CC2)C(=O)N2CCN(C)[C@@H](C)C2)cc1F)[C@H]1CC[C@H](C)CC1", "note": "(stereo partly drawn) [Compound 433]", "IC50": "< 10"}, {"smiles": "CCn1nccc1C(=O)N[C@H](C(=O)Nc1ccc([C@H](C)[C@@H](NC(=O)C(C)C2CC2)C(=O)N2CCN(C)[C@H](C)C2)cc1F)[C@H]1CC[C@H](C)CC1", "note": "(stereo partly drawn) [Compound 434]", "IC50": "< 10"}, {"smiles": "CCC(=O)N[C@@H](C(=O)N1CCN(C)[C@@H](C)C1)[C@@H](C)c1ccc(NC(=O)[C@@H](NC(=O)c2ccnn2CC)[C@H]2CC[C@H](C)CC2)c(F)c1", "note": "[Compound 435]", "IC50": "< 10"}, {"smiles": "CCC(=O)N[C@@H](C(=O)N1CCN(C)[C@H](C)C1)[C@@H](C)c1ccc(NC(=O)[C@@H](NC(=O)c2ccnn2CC)[C@H]2CC[C@H](C)CC2)c(F)c1", "note": "[Compound 436]", "IC50": "< 10"}, {"smiles": "CCC(=O)N[C@@H](C(=O)N1CCC(C)(OC)CC1)[C@@H](C)c1ccc(NC(=O)[C@@H](NC(=O)c2ccnn2CC)[C@H]2CC[C@H](C)CC2)c(F)c1", "note": "[Compound 437]", "IC50": "< 10"}, {"smiles": "CCn1nccc1C(=O)N[C@H](C(=O)Nc1ccc([C@H](C)[C@@H](NC(=O)c2cnns2)C(=O)N2CCNC3(CC3)C2)cc1F)[C@H]1CC[C@H](C)CC1", "note": "[Compound 438]", "IC50": "10 to 100"}, {"smiles": "CCn1nccc1C(=O)N[C@H](C(=O)Nc1ccc([C@H](C)[C@@H](NC(=O)c2cnns2)C(=O)N2CCN(C)C3(CC3)C2)cc1F)[C@H]1CC[C@H](C)CC1", "note": "[Compound 439]", "IC50": "10 to 100"}, {"smiles": "CCn1nccc1C(=O)N[C@H](C(=O)Nc1ccc([C@H](C)[C@@H](NC(=O)c2cnns2)C(=O)N2CCC(C)(O)CC2)cc1F)[C@H]1CC[C@H](C)CC1", "note": "[Compound 440]", "IC50": "< 10"}, {"smiles": "CCn1nccc1C(=O)N[C@H](C(=O)Nc1ccc([C@H](C)[C@@H](NC(=O)c2cnns2)C(=O)N2CCN(Cc3ccccc3)CC2)cc1F)[C@H]1CC[C@H](C)CC1", "note": "[Compound 441]", "IC50": "< 10"}, {"smiles": "CCn1nccc1C(=O)N[C@H](C(=O)Nc1ccc([C@H](C)[C@@H](NC(=O)c2conc2C2CCNCC2)C(=O)N2CCC(C)(O)CC2)cc1F)[C@H]1CC[C@H](C)CC1", "note": "[Compound 442]", "IC50": "10 to 100"}, {"smiles": "CCn1nccc1C(=O)N[C@H](C(=O)Nc1ccc([C@H](C)[C@@H](NC(=O)CC2CC2)C(=O)N2CCN(Cc3ccccc3)CC2)cc1F)[C@H]1CC[C@H](C)CC1", "note": "[Compound 443]", "IC50": "< 10"}, {"smiles": "CCC(=O)N[C@@H](C(=O)N1CCNC2(CC2)C1)[C@@H](C)c1ccc(NC(=O)[C@@H](NC(=O)c2nonc2CC)[C@H]2CC[C@H](C)CC2)c(F)c1", "note": "[Compound 444]", "IC50": "10 to 100"}, {"smiles": "CCC(=O)N[C@@H](C(=O)N1CCN(CCO)CC1)[C@@H](C)c1ccc(NC(=O)[C@@H](NC(=O)c2nonc2CC)[C@H]2CC[C@H](C)CC2)c(F)c1", "note": "[Compound 445]", "IC50": "10 to 100"}, {"smiles": "CCC(=O)N[C@@H](C(=O)N1CC(C(C)(C)O)C1)[C@@H](C)c1ccc(NC(=O)[C@@H](NC(=O)c2nonc2CC)[C@H]2CC[C@H](C)CC2)c(F)c1", "note": "[Compound 446]", "IC50": "< 10"}, {"smiles": "CCC(=O)N[C@@H](C(=O)N1C[C@@H](C)N[C@@H](C)C1)[C@@H](C)c1ccc(NC(=O)[C@@H](NC(=O)c2nonc2CC)[C@H]2CC[C@H](C)CC2)c(F)c1", "note": "[Compound 447]", "IC50": "10 to 100"}, {"smiles": "CCC(=O)N[C@@H](C(=O)N1C[C@H](C)N(C(=O)CC)[C@@H](C)C1)[C@@H](C)c1ccc(NC(=O)[C@@H](NC(=O)c2nonc2CC)[C@H]2CC[C@H](C)CC2)c(F)c1", "note": "[Compound 448]", "IC50": "< 10"}, {"smiles": "CCC(=O)N[C@@H](C(=O)N1CCN(Cc2ccccn2)CC1)[C@@H](C)c1ccc(NC(=O)[C@@H](NC(=O)c2nonc2CC)[C@H]2CC[C@H](C)CC2)c(F)c1", "note": "[Compound 450]", "IC50": "< 10"}, {"smiles": "CCC(=O)N[C@@H](C(=O)N1C[C@@H](C)N(C)[C@H](C)C1)[C@@H](C)c1ccc(NC(=O)[C@@H](NC(=O)c2nonc2CC)[C@H]2CC[C@H](C)CC2)c(F)c1", "note": "[Compound 451]", "IC50": "< 10"}, {"smiles": "CCC(=O)N[C@@H](C(=O)N1C[C@@H](C)N(C)[C@@H](C)C1)[C@@H](C)c1ccc(NC(=O)[C@@H](NC(=O)c2nonc2CC)[C@H]2CC[C@H](C)CC2)c(F)c1", "note": "[Compound 452]", "IC50": "< 10"}, {"smiles": "CCC(=O)N[C@@H](C(=O)N1CCN[C@H](C)C1)[C@@H](C)c1ccc(NC(=O)[C@@H](NC(=O)c2nonc2CC)[C@H]2CC[C@H](C)CC2)c(F)c1", "note": "[Compound 454]", "IC50": "100 to 10000"}, {"smiles": "CCC(=O)N[C@@H](C(=O)N(C)Cc1cncn1C)[C@@H](C)c1ccc(NC(=O)[C@@H](NC(=O)c2nonc2CC)[C@H]2CC[C@H](C)CC2)c(F)c1", "note": "[Compound 455]", "IC50": "100 to 10000"}, {"smiles": "CCC(=O)N[C@@H](C(=O)N1CCN(C)C[C@@H]1C)[C@@H](C)c1ccc(NC(=O)[C@@H](NC(=O)c2nonc2CC)[C@H]2CC[C@H](C)CC2)c(F)c1", "note": "[Compound 456]", "IC50": "< 10"}, {"smiles": "CCC(=O)N[C@@H](C(=O)N1CCN(C)C[C@H]1C)[C@@H](C)c1ccc(NC(=O)[C@@H](NC(=O)c2nonc2CC)[C@H]2CC[C@H](C)CC2)c(F)c1", "note": "[Compound 457]", "IC50": "< 10"}, {"smiles": "CCC(=O)N[C@@H](C(=O)N1CCN(C)CC1(C)C)[C@@H](C)c1ccc(NC(=O)[C@@H](NC(=O)c2nonc2CC)[C@H]2CC[C@H](C)CC2)c(F)c1", "note": "[Compound 458]", "IC50": "< 10"}, {"smiles": "CCC(=O)N[C@@H](C(=O)N1CCN(C)[C@@H](C)C1)[C@@H](C)c1ccc(NC(=O)[C@@H](NC(=O)c2nonc2CC)[C@H]2CC[C@H](C)CC2)c(F)c1", "note": "[Compound 460]", "IC50": "< 10"}, {"smiles": "CCC(=O)N[C@@H](C(=O)N1CCN(C)C(C)(C)C1)[C@@H](C)c1ccc(NC(=O)[C@@H](NC(=O)c2nonc2CC)[C@H]2CC[C@H](C)CC2)c(F)c1", "note": "[Compound 464]", "IC50": "< 10"}, {"smiles": "CCC(=O)N[C@@H](C(=O)N1CCN(CC)[C@@H](C)C1)[C@@H](C)c1ccc(NC(=O)[C@@H](NC(=O)c2nonc2CC)[C@H]2CC[C@H](C)CC2)c(F)c1", "note": "[Compound 467]", "IC50": "< 10"}, {"smiles": "CCC(=O)N[C@@H](C(=O)N1CCC(F)(F)CC1)[C@@H](C)c1ccc(NC(=O)[C@@H](NC(=O)c2nonc2CC)[C@H]2CC[C@H](C)CC2)c(F)c1", "note": "[Compound 468]", "IC50": "10 to 100"}, {"smiles": "CCn1nccc1C(=O)N[C@H](C(=O)Nc1ccc([C@H](C)[C@@H](NC(=O)C2CC2)C(=O)N2CCN(C)CC2)cc1F)[C@H]1CC[C@H](C)CC1", "note": "[Compound 469]", "IC50": "10 to 100"}, {"smiles": "CCn1nccc1C(=O)N[C@H](C(=O)Nc1ccc([C@H](C)[C@@H](NC(=O)[C@@H](C)F)C(=O)N2CCN(C)CC2)cc1F)[C@H]1CC[C@H](C)CC1", "note": "[Compound 470]", "IC50": "10 to 100"}, {"smiles": "CCn1nccc1C(=O)N[C@H](C(=O)Nc1ccc([C@H](C)[C@@H](NC(=O)C(C)(F)F)C(=O)N2CCN(C)CC2)cc1F)[C@H]1CC[C@H](C)CC1", "note": "[Compound 471]", "IC50": "10 to 100"}, {"smiles": "CCn1nccc1C(=O)N[C@H](C(=O)Nc1ccc([C@H](C)[C@@H](NC(=O)[C@H](C)F)C(=O)N2CCN(C)CC2)cc1F)[C@H]1CC[C@H](C)CC1", "note": "[Compound 472]", "IC50": "10 to 100"}, {"smiles": "CCn1nccc1C(=O)N[C@H](C(=O)Nc1ccc([C@H](C)[C@@H](NC(=O)c2nonc2C)C(=O)N2CCN(C)CC2)cc1F)[C@H]1CC[C@H](C)CC1", "note": "[Compound 473]", "IC50": "10 to 100"}]}]}
